For assay [1], the target named is T1, Tyrosine-protein kinase receptor TYRO3 (Homo sapiens) (UniProt Q06418).
T1 sequence (whole entry): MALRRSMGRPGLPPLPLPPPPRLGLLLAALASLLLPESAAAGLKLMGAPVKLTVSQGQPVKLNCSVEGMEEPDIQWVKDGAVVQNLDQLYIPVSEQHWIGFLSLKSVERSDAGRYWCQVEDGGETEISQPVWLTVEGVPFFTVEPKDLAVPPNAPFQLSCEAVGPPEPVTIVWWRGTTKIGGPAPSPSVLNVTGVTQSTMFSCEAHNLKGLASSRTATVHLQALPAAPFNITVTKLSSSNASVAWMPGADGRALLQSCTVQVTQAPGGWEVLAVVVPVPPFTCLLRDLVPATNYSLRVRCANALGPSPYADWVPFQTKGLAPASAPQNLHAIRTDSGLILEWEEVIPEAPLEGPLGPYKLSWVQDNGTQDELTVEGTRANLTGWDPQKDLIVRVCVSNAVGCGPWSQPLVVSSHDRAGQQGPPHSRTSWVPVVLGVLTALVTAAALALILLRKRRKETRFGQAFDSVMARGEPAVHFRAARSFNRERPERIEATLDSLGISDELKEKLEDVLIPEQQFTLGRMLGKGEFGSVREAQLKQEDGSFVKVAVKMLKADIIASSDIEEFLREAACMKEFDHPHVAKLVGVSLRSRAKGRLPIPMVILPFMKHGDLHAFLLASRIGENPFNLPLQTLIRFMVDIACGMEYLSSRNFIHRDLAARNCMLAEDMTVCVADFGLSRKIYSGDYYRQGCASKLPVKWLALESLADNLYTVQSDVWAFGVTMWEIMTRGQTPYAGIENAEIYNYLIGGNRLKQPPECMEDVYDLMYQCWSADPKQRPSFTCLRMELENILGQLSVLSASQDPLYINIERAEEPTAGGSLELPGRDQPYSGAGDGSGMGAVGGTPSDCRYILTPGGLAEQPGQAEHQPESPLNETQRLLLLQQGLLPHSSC
The experiment in a line: Inhibition of recombinant GST-tagged human Tyro3 (451 to 890 residues) cytoplasmic domain expressed in Baculovirus expression system using poly (Glu-Ala-Tyr) peptide as substrate after 1.5 hrs by ELISA. (In general: In an ELISA, binding on a coated surface is turned into a signal by an enzyme label.)

Assay [2] deals with Tyrosine-protein kinase receptor UFO (Homo sapiens) (UniProt P30530). The experiment in a line: Inhibition of recombinant His-tagged human Axl (473 to end residues) cytoplasmic domain expressed in insect system using poly (Glu-Ala-Tyr) peptide as substrate after 1.5 hrs by ELISA.
Assay [3] deals with T2, Tyrosine-protein kinase Mer (Homo sapiens) (UniProt Q12866).
T2 sequence (whole entry): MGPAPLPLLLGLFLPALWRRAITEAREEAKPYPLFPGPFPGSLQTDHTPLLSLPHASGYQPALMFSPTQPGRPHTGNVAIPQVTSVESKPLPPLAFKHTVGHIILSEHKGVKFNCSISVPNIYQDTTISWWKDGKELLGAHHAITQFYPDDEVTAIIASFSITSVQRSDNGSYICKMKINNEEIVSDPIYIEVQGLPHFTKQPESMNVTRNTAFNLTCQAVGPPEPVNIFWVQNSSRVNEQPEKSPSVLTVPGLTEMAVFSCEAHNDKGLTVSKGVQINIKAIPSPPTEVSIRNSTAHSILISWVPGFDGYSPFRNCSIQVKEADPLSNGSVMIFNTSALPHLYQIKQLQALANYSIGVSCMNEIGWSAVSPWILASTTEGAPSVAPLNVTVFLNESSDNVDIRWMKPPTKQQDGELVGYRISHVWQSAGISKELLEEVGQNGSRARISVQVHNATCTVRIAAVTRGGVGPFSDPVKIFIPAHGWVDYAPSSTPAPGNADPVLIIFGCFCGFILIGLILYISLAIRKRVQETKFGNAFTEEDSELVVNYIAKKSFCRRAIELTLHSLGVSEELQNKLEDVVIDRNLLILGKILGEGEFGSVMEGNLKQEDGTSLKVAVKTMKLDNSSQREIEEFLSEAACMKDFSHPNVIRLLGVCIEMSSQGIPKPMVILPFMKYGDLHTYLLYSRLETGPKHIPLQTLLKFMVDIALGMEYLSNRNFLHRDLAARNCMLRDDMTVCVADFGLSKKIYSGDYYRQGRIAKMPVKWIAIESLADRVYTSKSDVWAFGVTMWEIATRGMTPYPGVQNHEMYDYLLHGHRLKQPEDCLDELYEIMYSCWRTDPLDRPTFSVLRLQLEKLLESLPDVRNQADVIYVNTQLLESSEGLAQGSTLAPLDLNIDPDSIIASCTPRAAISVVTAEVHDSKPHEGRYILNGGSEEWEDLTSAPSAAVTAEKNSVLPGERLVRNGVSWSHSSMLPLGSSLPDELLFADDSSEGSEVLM
As to the kind of experiment: Inhibition of recombinant GST-tagged human Mer (578 to 872 residues) cytoplasmic domain expressed in Baculovirus system using poly (Glu-Ala-Tyr) peptide as substrate after 1.5 hrs by ELISA.

Assay [4] in a line: (§1) Antiproliferative activity against human MGHU3 cells after 72 hrs by CellTiter-Glo assay. The format is functional, cell-based. (In general: Cellular ATP, detected with luciferase, serves as a proxy for viable cell number.)
For the next assay, the system named is RT-112. The experiment in a line: Antiproliferative activity against human RT112 cells after 72 hrs by CellTiter-Glo assay. It counts as functional, cell-based.
Another assay has as its system A549. As to the kind of experiment: Antiproliferative activity against human A549 cells after 72 hrs by CellTiter-Glo assay. It counts as functional, cell-based. Particulars: A549, 72 h.
Another assay is filed under the species Homo sapiens. The assay is described as §1. It counts as functional, cell-based.

Active and inactive are the calls of the source. No cut-off for these calls is given here.

The values below come from ChEMBL document CHEMBL4261615, “Design, synthesis, biological evaluation and cellular imaging of imidazo[4,5-b]pyridine derivatives as potent and selective TAM inhibitors” (Bioorg Med Chem, 2018).

One may read the IC50 as the concentration at which inhibition is half-maximal. Low readings indicate higher potency, high ones lower potency.

Sequence of Tyrosine-protein kinase receptor UFO (Homo sapiens) (P30530 whole entry, the tested form may be a part): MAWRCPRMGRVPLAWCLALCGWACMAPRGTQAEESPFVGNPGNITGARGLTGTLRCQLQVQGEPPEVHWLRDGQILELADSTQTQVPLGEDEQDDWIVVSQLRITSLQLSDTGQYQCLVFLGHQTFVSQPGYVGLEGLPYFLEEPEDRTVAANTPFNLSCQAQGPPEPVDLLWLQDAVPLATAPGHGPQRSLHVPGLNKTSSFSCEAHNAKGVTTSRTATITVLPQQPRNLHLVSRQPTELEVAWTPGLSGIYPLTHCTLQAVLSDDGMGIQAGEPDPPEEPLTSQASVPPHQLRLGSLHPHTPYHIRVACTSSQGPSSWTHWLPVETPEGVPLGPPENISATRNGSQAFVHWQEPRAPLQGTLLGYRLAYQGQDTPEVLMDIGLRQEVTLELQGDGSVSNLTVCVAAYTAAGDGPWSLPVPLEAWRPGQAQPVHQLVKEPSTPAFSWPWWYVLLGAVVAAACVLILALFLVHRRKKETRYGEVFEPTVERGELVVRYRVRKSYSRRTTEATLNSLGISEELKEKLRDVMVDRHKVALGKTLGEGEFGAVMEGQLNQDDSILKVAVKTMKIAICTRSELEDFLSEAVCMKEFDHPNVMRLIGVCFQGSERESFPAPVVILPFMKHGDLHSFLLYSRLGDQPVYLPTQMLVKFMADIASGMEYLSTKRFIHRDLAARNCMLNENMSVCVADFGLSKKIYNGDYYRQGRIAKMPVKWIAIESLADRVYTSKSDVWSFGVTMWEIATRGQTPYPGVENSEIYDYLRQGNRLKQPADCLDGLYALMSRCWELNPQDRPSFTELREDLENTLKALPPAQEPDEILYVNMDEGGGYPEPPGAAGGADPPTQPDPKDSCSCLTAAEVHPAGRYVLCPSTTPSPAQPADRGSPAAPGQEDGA

Consider `CC(C)c1nc2c(Oc3ccc(NC(=O)c4cccn(-c5ccc(F)cc5)c4=O)cc3F)c(-c3ccc(N(C)C)cc3)cnc2[nH]1`, for which the inhibition result in assay [1], in assay [2] and in assay [3] was “inactive” in each case.
With `CCc1nc2c(Oc3ccc(NC(=O)c4cccn(-c5ccc(F)cc5)c4=O)cc3F)c(-c3ccncc3)cnc2[nH]1`, the inhibition entry in assay [1], in assay [2] and in assay [3] was “inactive” in each case.
For the molecule `CCc1nc2c(Oc3ccc(NC(=O)c4cccn(-c5ccc(F)cc5)c4=O)cc3F)c(-c3ccc(N(C)C)cc3)cnc2[nH]1`, the inhibition result in assay [1], in assay [2] and in assay [3] was “inactive” in each case.
As for `COc1cc2/c(=N/c3ccc(Br)cc3F)nc[nH]c2cc1OCC1CCN(C)CC1` [VANDETANIB], the IC50 in assay [4] lay in the range of 2.5 to 5 µM; in the assay on RT-112 (RT-112, 72 h) it was 2.5 to 5 µM; in the assay on A549, 2.5 to 5 µM.
Turning to `CC(C)c1nc2c(Oc3ccc(NC(=O)c4cccn(-c5ccc(F)cc5)c4=O)cc3F)c(-c3cccnc3)cnc2[nH]1`, the inhibition result in assay [1], in assay [2] and in assay [3] was “inactive” throughout.
In the case of `CCc1nc2c(Oc3ccc(NC(=O)c4cccn(-c5ccc(F)cc5)c4=O)cc3F)c(-c3ccoc3)cnc2[nH]1`, the inhibition result in assay [1], in assay [2] and in assay [3] was “inactive” in each case.
For the molecule `CC(C)c1nc2c(Oc3ccc(NC(=O)c4cccn(-c5ccc(F)cc5)c4=O)cc3F)c(-c3ccoc3)cnc2[nH]1`, the inhibition entry in assay [1], in assay [2] and in assay [3] was “inactive” in each case.
Regarding `CCc1nc2c(Oc3ccc(NC(=O)c4cccn(-c5ccc(F)cc5)c4=O)cc3F)c(-c3cccnc3)cnc2[nH]1`, the inhibition result in assay [1], in assay [2] and in assay [3] was “inactive” each time.
Consider `COc1cc2nccc(Oc3ccc(NC(=O)C4(C(=O)Nc5ccc(F)cc5)CC4)cc3)c2cc1OC`, for which the outcome in the assay filed under Homo sapiens and in the assay with RT-112 was Active.
For `CC(C)c1nc2c(Oc3ccc(NC(=O)c4cccn(-c5ccc(F)cc5)c4=O)cc3F)c(-c3ccc(O)cc3)cnc2[nH]1`, the inhibition result in assay [1], in assay [2] and in assay [3] was “inactive” in each case.
For `CCc1nc2c(Oc3ccc(NC(=O)c4cccn(-c5ccc(F)cc5)c4=O)cc3F)c(-c3ccc(O)cc3)cnc2[nH]1`, the inhibition entry in assay [1], in assay [2] and in assay [3] was “inactive” throughout.
Turning to `CC(C)c1nc2c(Oc3ccc(NC(=O)c4cccn(-c5ccc(F)cc5)c4=O)cc3F)c(-c3ccncc3)cnc2[nH]1`, the inhibition entry in assay [1], in assay [2] and in assay [3] was “inactive” each time.
As for `O=C(Nc1ccc(Oc2c(-c3ccccc3)cnc3[nH]cnc23)c(F)c1)c1cccn(-c2ccc(F)cc2)c1=O`, the inhibition result in assay [1], in assay [2] and in assay [3] was “inactive” in each case.
For `CCOc1ccn(-c2ccc(F)cc2)c(=O)c1C(=O)Nc1ccc(Oc2ccnc(N)c2Cl)c(F)c1`, the result in the assay filed under Homo sapiens and in the assay on RT-112 was Active.
